Reference: US10940188B2, “Compounds and methods for treatment and prevention of Flavivirus infection” (priority 2016, dated 2021)
“Also recorded” adds a separate entry of the source.

How the values were obtained:
activated caspases = details: in vitro; cited from earlier work
[1] = tested on: liver injury in chronic Hepatitis C patients; details: chronic HCV patients; cited from earlier work
[2] = tested on: forebrain-specific brain organoids; test: hNPC proliferation in forebrain organoids (phospho-Histone 3), compound alone; assay type: cell-based, human; details: 3 days
Procedure: (§1) FIGS. 17A-17C. Analysis of potential toxicity of CDKis on human astrocyte viability and hNPC proliferation. Human iPSC-derived astrocytes (BJ line) were treated with each indicated compound (cpd) for 25 hours prior to cell viability analysis as measured in relative luciferase units for ATP production. Values represent mean+s.d. (n=3 cultures; ***P<0.001; **P<0.01; One-way ANOVA for comparison with the DMSO treatment). RLU: relative luminescence units. hNPCs were treated with saline, PHA-690509 (PHA, 1 μM) or Seliciclib (5 μM), 1 hour prior to ZIKV PRVABC59 infection (MOI=0.08). At 72 hours post infection, EdU (10 μM) was added to hNPCs and cells were cultured for additional 4 hours prior to fixation and staining for EdU and DAPI. Values represent mean+s.e.m. (n=3 cultures; ***P<0.001; One-way ANOVA for comparison with the mock treatment). Day 20 forebrain-specific brain organoids were treated with PHA-690509 (1 μM) or Seliciclib (5 μM) for 3 days and hNPC proliferation was evaluated by phospho-Histone 3 (PH3) expression within the ventricular zone. Values represent mean+s.e.m. (n=8 organoids; P>0.05; One-way ANOVA for comparison with the mock treatment).

[3] = tested on: hNPCs infected with ZIKV PRVABC59; test: hNPC proliferation after ZIKV infection (EdU); assay type: cell-based, human; details: PHA-690509 1 μM, Seliciclib 5 μM
Procedure: as §1

Row | Compound | activity against activated caspases (activated caspases) | liver injury and tolerability in clinical trials [1] | effect of the treatment itself on hNPC proliferation [2] | rescue of ZIKV-induced reduction of hNPC proliferation [3]
1 | C[C@H](NC(=O)C(=O)Nc1ccccc1C(C)(C)C)C(=O)N[C@@H](CC(=O)O)C(=O)COc1c(F)c(F)cc(F)c1F [Emricasan] | sub- to nano-molar activity | reduced liver injury and was tolerated over 12 weeks; also recorded: well tolerated in human trials without significant adverse events |  | 
2 | CC(=O)Nc1ccc([C@H](C)C(=O)Nc2ncc(C(C)C)s2)cc1 [PHA-690509] |  |  | minimal effect on hNPC proliferation in brain organoids | partially rescued ZIKV-induced reduction of hNPC proliferation
